Measured values published in PubChem BioAssay (NCI).
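Interpolation was linear, between the two tested concentrations surrounding the appropriate level; five concentrations were tested over 48 hours in 96-well plates. GI50 is the concentration that inhibits growth by half. At the TGI there is no net growth.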

Key:
Test in all cases: growth of human tumour cells (NCI), 48 h
786-0 renal = test system: 786-0 renal
A498 renal = test system: A498 renal
A549 NSCLC = test system: A549 NSCLC
ACHN renal = test system: ACHN renal
BT-549 breast = test system: BT-549 breast
CAKI-1 renal = test system: CAKI-1 renal
CCRF-CEM leukemia = test system: CCRF-CEM leukemia
COLO 205 colon = test system: COLO 205 colon
DU-145 prostate = test system: DU-145 prostate
EKVX NSCLC = test system: EKVX NSCLC
HCC-2998 colon = test system: HCC-2998 colon
HCT-116 colon = test system: HCT-116 colon
HCT-15 colon = test system: HCT-15 colon
HL-60(TB) leukemia = test system: HL-60(TB) leukemia
HOP-62 NSCLC = test system: HOP-62 NSCLC
HOP-92 NSCLC = test system: HOP-92 NSCLC
HS 578T breast = test system: HS 578T breast
IGROV1 ovarian = test system: IGROV1 ovarian
K-562 leukemia = test system: K-562 leukemia
KM12 colon = test system: KM12 colon
LOX IMVI melanoma = test system: LOX IMVI melanoma
M14 melanoma = test system: M14 melanoma
MALME-3M melanoma = test system: MALME-3M melanoma
MCF7 breast = test system: MCF7 breast
MDA-MB-231 breast = test system: MDA-MB-231 breast
MDA-MB-435 = test system: MDA-MB-435
MOLT-4 leukemia = test system: MOLT-4 leukemia
NCI-H226 lung = test system: NCI-H226 lung
NCI-H23 lung = test system: NCI-H23 lung
NCI-H460 lung = test system: NCI-H460 lung
NCI-H522 lung = test system: NCI-H522 lung
NCI/ADR-RES ovarian = test system: NCI/ADR-RES ovarian
OVCAR-3 ovarian = test system: OVCAR-3 ovarian
OVCAR-4 ovarian = test system: OVCAR-4 ovarian
OVCAR-5 ovarian = test system: OVCAR-5 ovarian
OVCAR-8 ovarian = test system: OVCAR-8 ovarian
PC-3 prostate = test system: PC-3 prostate
RPMI-8226 leukemia = test system: RPMI-8226 leukemia
RXF 393 renal = test system: RXF 393 renal
SF-268 CNS = test system: SF-268 CNS
SF-295 CNS = test system: SF-295 CNS
SF-539 CNS = test system: SF-539 CNS
SK-MEL-2 melanoma = test system: SK-MEL-2 melanoma
SK-MEL-28 melanoma = test system: SK-MEL-28 melanoma
SK-MEL-5 melanoma = test system: SK-MEL-5 melanoma
SK-OV-3 ovarian = test system: SK-OV-3 ovarian
SN12C renal = test system: SN12C renal
SNB-19 CNS = test system: SNB-19 CNS
SR leukemia = test system: SR leukemia
SW-620 colon = test system: SW-620 colon
T-47D breast = test system: T-47D breast
TK-10 renal = test system: TK-10 renal
UACC-257 melanoma = test system: UACC-257 melanoma
UACC-62 melanoma = test system: UACC-62 melanoma
UO-31 renal = test system: UO-31 renal

SMILES: COC(=O)c1ccc2[nH]c(O)c(C(=Nc3ccc(N(C)C(=O)CN4CCN(C)CC4)cc3)c3ccccc3)c2c1
- GI50 (786-0 renal): 1070 nM
- TGI (786-0 renal): 2830 nM
- GI50 (A498 renal): 1910 nM
- TGI (A498 renal): 5.39 µM
- GI50 (A549 NSCLC): 1460 nM
- TGI (A549 NSCLC): 5.31 µM
- GI50 (ACHN renal): 1130 nM
- TGI (ACHN renal): 4.12 µM
- GI50 (BT-549 breast): 1650 nM
- TGI (BT-549 breast): 3.28 µM
- GI50 (CAKI-1 renal): 210 nM
- TGI (CAKI-1 renal): 1250 nM
- GI50 (CCRF-CEM leukemia): 666 nM
- TGI (CCRF-CEM leukemia): > 100 µM
- GI50 (COLO 205 colon): 700 nM
- TGI (COLO 205 colon): 2450 nM
- GI50 (DU-145 prostate): 1270 nM
- TGI (DU-145 prostate): 8.98 µM
- GI50 (EKVX NSCLC): 2980 nM
- TGI (EKVX NSCLC): 16.2 µM
- GI50 (HCC-2998 colon): 3.89 µM
- TGI (HCC-2998 colon): 18.2 µM
- GI50 (HCT-116 colon): 343 nM
- TGI (HCT-116 colon): 3.06 µM
- GI50 (HCT-15 colon): 1770 nM
- TGI (HCT-15 colon): 8.4 µM
- GI50 (HL-60(TB) leukemia): 835 nM
- TGI (HL-60(TB) leukemia): 3.12 µM
- GI50 (HOP-62 NSCLC): 2100 nM
- TGI (HOP-62 NSCLC): 13 µM
- GI50 (HOP-92 NSCLC): 9.78 µM
- TGI (HOP-92 NSCLC): 39.7 µM
- GI50 (HS 578T breast): 266 nM
- TGI (HS 578T breast): 4.57 µM
- GI50 (IGROV1 ovarian): 297 nM
- TGI (IGROV1 ovarian): 1830 nM
- GI50 (K-562 leukemia): 241 nM
- TGI (K-562 leukemia): 11.9 µM
- GI50 (KM12 colon): 35.3 nM
- TGI (KM12 colon): 5.52 µM
- GI50 (LOX IMVI melanoma): 552 nM
- TGI (LOX IMVI melanoma): 1920 nM
- GI50 (M14 melanoma): 729 nM
- TGI (M14 melanoma): 2420 nM
- GI50 (MALME-3M melanoma): 1430 nM
- TGI (MALME-3M melanoma): 2860 nM
- GI50 (MCF7 breast): 603 nM
- TGI (MCF7 breast): 2420 nM
- GI50 (MDA-MB-231 breast): 1280 nM
- TGI (MDA-MB-231 breast): 3.17 µM
- GI50 (MDA-MB-435): 890 nM
- TGI (MDA-MB-435): 4.02 µM
- GI50 (MOLT-4 leukemia): 389 nM
- TGI (MOLT-4 leukemia): 4.56 µM
- GI50 (NCI-H226 lung): 993 nM
- TGI (NCI-H226 lung): 4.99 µM
- GI50 (NCI-H23 lung): 1290 nM
- TGI (NCI-H23 lung): 4.14 µM
- GI50 (NCI-H460 lung): 1870 nM
- TGI (NCI-H460 lung): 5.09 µM
- GI50 (NCI-H522 lung): 1490 nM
- TGI (NCI-H522 lung): 4.41 µM
- GI50 (NCI/ADR-RES ovarian): 9.36 µM
- TGI (NCI/ADR-RES ovarian): 36.4 µM
- GI50 (OVCAR-3 ovarian): 1410 nM
- TGI (OVCAR-3 ovarian): 3.23 µM
- GI50 (OVCAR-4 ovarian): 956 nM
- TGI (OVCAR-4 ovarian): 2780 nM
- GI50 (OVCAR-5 ovarian): 2630 nM
- TGI (OVCAR-5 ovarian): 6.8 µM
- GI50 (OVCAR-8 ovarian): 1610 nM
- TGI (OVCAR-8 ovarian): 7.1 µM
- GI50 (PC-3 prostate): 1040 nM
- TGI (PC-3 prostate): 25.5 µM
- GI50 (RPMI-8226 leukemia): 1920 nM
- TGI (RPMI-8226 leukemia): 8.34 µM
- GI50 (RXF 393 renal): 422 nM
- TGI (RXF 393 renal): 1690 nM
- GI50 (SF-268 CNS): 1330 nM
- TGI (SF-268 CNS): 7.94 µM
- GI50 (SF-295 CNS): 6.34 µM
- TGI (SF-295 CNS): 21 µM
- GI50 (SF-539 CNS): 440 nM
- TGI (SF-539 CNS): 1720 nM
- GI50 (SK-MEL-2 melanoma): 1170 nM
- TGI (SK-MEL-2 melanoma): 3.54 µM
- GI50 (SK-MEL-28 melanoma): 1620 nM
- TGI (SK-MEL-28 melanoma): 3.34 µM
- GI50 (SK-MEL-5 melanoma): 1350 nM
- TGI (SK-MEL-5 melanoma): 2690 nM
- GI50 (SK-OV-3 ovarian): 444 nM
- TGI (SK-OV-3 ovarian): 5 µM
- GI50 (SN12C renal): 267 nM
- TGI (SN12C renal): 11.6 µM
- GI50 (SNB-19 CNS): 2950 nM
- TGI (SNB-19 CNS): 8.33 µM
- GI50 (SR leukemia): 224 nM
- TGI (SR leukemia): 10.2 µM
- GI50 (SW-620 colon): 795 nM
- TGI (SW-620 colon): 4.27 µM
- GI50 (T-47D breast): 11.9 µM
- TGI (T-47D breast): 33.4 µM
- GI50 (TK-10 renal): 3.05 µM
- TGI (TK-10 renal): 17 µM
- GI50 (UACC-257 melanoma): 2240 nM
- TGI (UACC-257 melanoma): 5 µM
- GI50 (UACC-62 melanoma): 4.02 µM
- TGI (UACC-62 melanoma): 13.8 µM
- GI50 (UO-31 renal): 1240 nM
- TGI (UO-31 renal): 3.86 µM
